Experimental data from US8846729B2, “2-thio-1,3,4-oxadiazoles azetidine derivatives as sphingosine-1 phosphate receptors modulators” (Allergan, Inc., priority 2012, dated 2014).

Target: T1, human S1P1 receptor (Homo sapiens, UniProt P21453)
T1 construct: expressed in transfected cells; membranes used
Experiment: GTP γ35S binding assay for S1P1 activity
Assay type: biochemical
Conditions: membranes of cells stably expressing S1P1 receptor, agonist potency
Protocol: Compounds were synthesized and tested for S1P1 activity using the GTP γ^355 binding assay. These compounds may be assessed for their ability to activate or block activation of the human S1P1 receptor in cells stably expressing the S1P1 receptor.
[…] binding was measured in the medium containing (mM) HEPES 25, pH 7.4, MgCl2 10, NaCl 100, dithitothreitol 0.5, digitonin 0.003%, 0.2 nM GTP γ^35S, and 5 μg membrane protein in a volume of 150 μl. Test compounds were included in the concentration range from 0.08 to 5,000 nM unless indicated otherwise. Membranes were incubated with 100 μM 5′-adenylylimmidodiphosphate for 30 min, and subsequently with 10 μM GDP for 10 min on ice. Drug solutions and membrane were mixed, and then reactions were initiated by adding GTP γ^355 and continued for 30 min at 25° C. Reaction mixtures were filtered over Whatman GF/B filters under vacuum, and washed three times with 3 mL of ice-cold buffer (HEPES 25, pH7.4, MgCl2 10 and NaCl 100). Filters were dried and mixed with scintillant, and counted for ^35S activity using a β-counter. Agonist-induced GTP γ^355 binding was obtained by subtracting that in the absence of agonist. Binding data were analyzed using a non-linear regression method. In case of antagonist assay, the reaction mixture contained 10 nM […] in the presence of test antagonist at concentrations ranging from 0.08 to 5000 nM.

T1 sequence (P21453 whole entry): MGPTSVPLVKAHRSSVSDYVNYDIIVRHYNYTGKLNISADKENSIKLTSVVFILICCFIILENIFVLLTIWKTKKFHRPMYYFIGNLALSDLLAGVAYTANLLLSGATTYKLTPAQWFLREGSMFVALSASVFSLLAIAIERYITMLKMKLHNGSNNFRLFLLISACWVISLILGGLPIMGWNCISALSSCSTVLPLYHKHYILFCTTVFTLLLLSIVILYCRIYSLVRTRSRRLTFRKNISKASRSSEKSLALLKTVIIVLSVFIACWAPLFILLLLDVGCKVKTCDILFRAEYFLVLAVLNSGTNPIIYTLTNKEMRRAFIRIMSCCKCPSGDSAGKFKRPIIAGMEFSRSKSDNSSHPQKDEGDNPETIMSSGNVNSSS

EC50 [nM]	SMILES
18.6	O=C(O)C1CN(Cc2ccc(-c3nnc(SCc4cccc(Cl)c4F)o3)cc2)C1 [Compound 1, 1-(4-{5-[(3-Chloro-2-fluorobenzyl)thio]-1,3,4-oxadiazol-2-yl}benzyl)azetidine-3-carboxylic acid]
16.7	Cc1cc(CN2CC(C(=O)O)C2)ccc1-c1nnc(SC(C)c2cccc([N+](=O)[O-])c2)o1 (stereo not drawn) [Compound 2, 1-[3-Methyl-4-(5-{[1-(3-nitrophenyl)ethyl]thio}-1,3,4-oxadiazol-2-yl)benzyl]azetidine-3-carboxylic acid]
60.9	CCC(Sc1nnc(-c2ccc(CN3CC(C(=O)O)C3)cc2C)o1)c1cccc([N+](=O)[O-])c1 (stereo not drawn) [Compound 3, 1-[3-Methyl-4-(5-{[1-(3-nitrophenyl)propyl]thio}-1,3,4-oxadiazol-2-yl)benzyl]azetidine-3-carboxylic acid]
